Assay results: US20240398764A1, “METHODS OF TREATING DISEASES ASSOCIATED WITH SENESCENT CELL ACCUMULATION” (University of Florida Research Foundation, Incorporated, priority 2021, published 2024)

Columns and labels:
Bcl-xl [1] = target: T1, Bcl-xl (Homo sapiens, UniProt Q07817); experiment: Immunoblot of Bcl-xl degradation in human platelets; type: cell-based; design: endogenous in cells; host or cells: human platelets; conditions: different concentrations, 16 h
Text: (§1) FIG. 2A depicts immunoblots showing degradation of Bcl-xl and Bcl-2 in non-senescent WI-38 fibroblast cells (Non-SnCs) treated with varying concentrations of 753b. 3-actin was used as a loading control. FIG. 2B depicts viability of Non-SnCs treated with varying concentrations of 753b or ABT263. FIG. 2C depicts immunoblots showing degradation of Bcl-xl and Bcl-2 in ionizing radiation-induced senescent WI-38 fibroblast cells (IR-SnCs) treated with varying concentrations of 753b. 3-actin was used as a loading control. FIG. 2D depicts viability of IR-SnCs treated with varying concentrations of 753b or ABT263. FIG. 2E depicts immunoblots showing degradation of Bcl-xl and Bcl-2 in human platelets treated with varying concentrations of 753b. FIG. 2F depicts viability of human platelets treated with varying concentrations of 753b or ABT263.
(§2) The potency of 753b in degrading Bcl-xl/2 was evaluated by immunoblots after the cells or platelets were treated with different concentrations of 753b for 16 h ([…]). 753b is more cytotoxic to IR-SnCs but less toxic to Non-SnCs and platelets. The viability of Non-SnCs, IR-SnCs and platelets was measured 72 hr (Non-SnCs and IR-SnCs) and 48 hr (platelets) after they were incubated with increasing concentrations of 753b or ABT263 compared to cells/platelets with vehicle.

[2] = system: normal non-senescent WI-38 fibroblast cells (Non-SnCs); experiment: Viability of non-senescent WI-38 fibroblast cells; type: cell-based; conditions: 72 hr incubation; vs ABT263
Text: as §1, §2

[3] = system: senescent cells induced by STZ/HFD in the liver; experiment: Senescent cell clearance in livers of STZ/HFD mice (p16/p21 mRNA, SA-β-gal staining); type: in vivo, C57BL6 mice; conditions: 5 mg/kg twice a week IP
Description: GAPDH was used as a loading control. FIG. 6B depicts the relative expression of p16 and p21 at mRNA levels in the livers of STZ/HFD mice treated with 753b or vehicle control. *p<0.05. FIGS. 6C to 6D show senescence-associated beta-galactosidase (SA-β-gal) stained livers of STZ/HFD mice treated with vehicle control (FIG. 6C) or 753b (FIG. 6D). Scale bar: […].
Experimental design: C57BL6 mice were injected with Streptozotocin (STZ) at postnatal day 2 to induce diabetes and then fed with HFD from postnatal day 30 till the end of the experiments (FIG. 5). Half of the mice started receiving vehicle and the others receiving 753b (5 mg/kg) treatment on postnatal day 45 twice a week by IP injection till the end of the experiments. A group of the mice were euthanized at postnatal day 90 (or day 45 after the initiation of the treatment) for analysis of senescent cell accumulation and steatosis. Another group of the mice were euthanized at postnatal day 150 (or day 105 after the initiation of the treatment) for analysis of liver fibrosis and cancer.
753b effectively clears senescent cells induced by STZ/HFD in the liver. The liver tissues were collected from mice at postnatal day 90 (p90 or 45 days after treatment) for the analyses. […] Data were means±SD of triplicate experiments.

Bcl-2 = Bcl-2 (Homo sapiens, UniProt P10415); experiment: Immunoblot of Bcl-2 degradation in HEK293T cells; type: cell-based; design: endogenous in cells; conditions: different concentrations for 16 h, or 1 μM for various time points
Bcl-2, sequence (P10415 whole entry): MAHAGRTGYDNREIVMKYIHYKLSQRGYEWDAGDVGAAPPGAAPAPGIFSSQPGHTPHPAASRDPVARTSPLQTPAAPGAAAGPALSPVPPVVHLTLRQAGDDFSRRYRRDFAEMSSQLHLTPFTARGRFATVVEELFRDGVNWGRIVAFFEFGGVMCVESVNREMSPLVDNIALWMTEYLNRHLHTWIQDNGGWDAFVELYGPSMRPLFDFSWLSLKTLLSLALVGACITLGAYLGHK
Description: (§3) FIG. 1A depicts immunoblots showing degradation of Bcl-xl and Bcl-2 in HEK293T cells treated with various concentrations of 753b for 16 hours. FIG. 1B depicts immunoblots showing degradation of Bcl-xl and Bcl-2 in HEK293T cells treated with 1 μM 753b for various durations. 3-actin was used as a loading control.
(§4) The potency of 753b in degrading Bcl-xl/2 was evaluated in 293T cells by immunoblots after the cells were treated with different concentrations of 753b for 16 h (FIG. 1A) or after the cells were treated with 1 μM 753b for various time points as indicated (FIG. 1B). Representative immunoblots are shown, and β-actin was used as a loading control.

[4] = Tumorigenesis in the STAM model (MRI); type: in vivo, C57BL6 mice; conditions: STZ/HFD mice; 5 mg/kg twice a week IP; postnatal day 150
Description: FIG. 10A depicts images of livers of STZ/HFD mice treated with vehicle control or 753b (top) and MRIs of T1 pre-contrast and T2-weighted images of corresponding livers (bottom). Tumor lesions are indicated by yellow arrows. […] FIG. 10C depicts a Western blot of Gpc3 in livers of STZ/HFD mice treated with vehicle control or 753b. Actin was used as a loading control.
Experimental design: C57BL6 mice were injected with Streptozotocin (STZ) at postnatal day 2 to induce diabetes and then fed with HFD from postnatal day 30 till the end of the experiments (FIG. 5). Half of the mice started receiving vehicle and the others receiving 753b (5 mg/kg) treatment on postnatal day 45 twice a week by IP injection till the end of the experiments. […]
All the analyses were done in mice at postnatal day 150 (p150 or 105 days after treatment). […] Tumor lesions were determined based on hypointense signals in T1 but hyperintense signals in T2-weighted image (FIG. 10A). Tumor number and volume was quantified based on MRI T1 and T2-weighted images. Values were expressed as means±SD from 5 mice per group. Data for each mouse were analyzed based on 5-6 slices of images that covered whole liver lobes (FIG. 10B). […] Quantification analysis was performed for the ratio between liver and body weight in the STZ/HFD treated livers that were exposed to 753b or control compound (FIG. 10D). […]

[5] = system: IR-induced senescent renal epithelial cells (IR-SnC REC); experiment: Viability of IR-SnC REC; type: cell-based; conditions: 72 hr incubation; vs ABT263
Description: FIGS. 3A to 3B depicts viability of non-SnC human umbilical vein endothelial cells (HUVEC) and IR-induced SnC HUVEC treated with varying concentrations of ABT263 (FIG. 3A) or 753b (FIG. 3B). FIGS. 3C to 3D depict viability of non-SnC renal epithelial cells (REC), IR-induced SnC REC, and replicative senescent REC treated with varying concentrations of ABT263 (FIG. 3C) or 753b (FIG. 3D).
The viability of Non-SnC HUVEC, Non-SnC REC, IR-SnC HUVEC, IR-SnC REC, and Rep-SnC REC was measured 72 hr after they were incubated with increasing concentrations of 753b or ABT263 compared to cells/platelets with vehicle.

Bcl-xl [6] = target: T1, Bcl-xl; experiment: Immunoblot of Bcl-xl degradation in HEK293T cells; type: cell-based; design: endogenous in cells; conditions: different concentrations for 16 h, or 1 μM for various time points
Description: as §3, §4

T1 sequence (Q07817 whole entry): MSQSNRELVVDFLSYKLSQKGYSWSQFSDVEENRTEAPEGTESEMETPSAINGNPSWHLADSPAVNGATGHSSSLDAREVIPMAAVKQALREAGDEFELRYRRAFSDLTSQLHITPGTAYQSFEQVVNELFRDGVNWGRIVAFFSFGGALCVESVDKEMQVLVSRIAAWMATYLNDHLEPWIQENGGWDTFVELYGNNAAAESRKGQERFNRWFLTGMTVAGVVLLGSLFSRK

For `Cc1ncsc1-c1ccc([C@H](C)NC(=O)[C@@H]2C[C@@H](O)CN2C(=O)[C@@H](NC(=O)CCCCCCC(=O)N2CCN(C[C@]3(C)CCC(c4ccc(Cl)cc4)=C(CN4CCN(c5ccc(C(=O)NS(=O)(=O)c6ccc(N[C@H](CCN7CCOCC7)CSc7ccccc7)c(S(=O)(=O)C(F)(F)F)c6)cc5)CC4)C3)CC2)C(C)(C)C)cc1` [Compound 753b], the “Bcl-xl degradation in human platelets” value (Bcl-xl [1]) was “not in human platelets”, the “Toxicity (viability) to Non-SnCs compared with ABT263” value [2] was “less toxic” and the “Senescent cell burden in the liver (SA-β-gal staining)” value ([3]; postnatal day 90) was “reduced senescent cell burden”. The “p16 mRNA level in the liver” value ([3]; postnatal day 90, Q-RT-PCR) was “inhibited upregulation”, the “p21 mRNA level in the liver” value ([3]; postnatal day 90, Q-RT-PCR) was “inhibited upregulation” and the Bcl-2 degradation (Bcl-2) was “degrades Bcl-xl and Bcl-2 in a dose- and time-dependent manner”. The “Tumorigenesis in the liver” value [4] was “reduces tumorigenesis”, the “Senolytic potency (viability) against IR-SnC REC compared with ABT263” value [5] was “more potent senolytic agent” and the Bcl-xl degradation (Bcl-xl [6]) was “degrades Bcl-xl and Bcl-2 in a dose- and time-dependent manner”.
